Two compounds from patent US10815457B2, “Active CXCR4+ immune cells and methods for their production and use” (UNIVERSITY OF PITTSBURGH—OF THE COMMONWEALTH SYSTEM OF …, priority 2014, dated 2020) can be followed below.

Molecules are shown by their SMILES. “Also recorded” adds a separate entry of the source.

One assay deals with CXCR4 on NK cells. As to the kind of experiment: CXCR4 expression on IL-12+IL-15-activated NK cells, by flow cytometry. The note with it: overnight with IL-12p70 (20 ng/ml) and IL-15 (20 ng/ml), 200 μM CoCl2. The class given is cell-based. As for the experimental part:
Negatively Isolated (EasySep) NK cells were cultured overnight with NK cell activators, IL-12p70 (20 ng/ml) and IL-15 (20 ng/ml), in absence or presence of 200 μM CoCl2 (Hypoxia mimic; HIF1α activator). Absolute numbers (A) and percentage (B) of CXCR4 NK cells are calculated by flow cytometry and are depicted in the figure.

The subject of assay [1] is CXCR4+/GZMB+ CD8+ T cells. The assay is described as follows: FACS staining for CXCR4 and GZMB in ex vivo induced CTLs exposed to a hypoxia mimic. Format: cell-based, human.
For assay [2], the system named is CXCL12-responsive GZMB+ CD8+ T cells. The assay is described as follows: Chemotaxis of GZMB+ CD8+ T cells to recombinant CXCL12 (transwell). Format: cell-based, human. As to conditions: 50 ng/ml CXCL12; cells primed with CD3/CD28 + IL-12 or type-1 polarized DCs, then DMOG.

Take `[Cl][Co][Cl]` [CoCl2, cobalt chloride]: in the assay on CXCR4 on NK cells, the “CXCR4 expression on NK cells (absolute numbers and percentage)” value is listed as “increases CXCR4 expression”.
Take `COC(=O)CNC(=O)C(=O)OC` [DMOG, dimethyloxalylglycine]: the “CXCR4 expression (CXCR4+/GZMB+ double positive CD8+ T cells)” value in assay [1] (CD3-CD28 beads +/- IL-12 (5 ng/ml) 6 days or type-1 polarized DCs, then 3 days with 200 μM DMOG) was “promote high levels of CXCR4; also recorded: increases CXCR4 expression”. Moreover, in assay [1] (CD8+ T cells primed in type-1-polarizing conditions, DMOG), the “intracellular GZMB expression in arising effector cells” value was “without affecting the intracellular GZMB expression”. In addition, the “responsiveness to CXCL12 (migration of GZMB+ CD8+ T cells)” value in assay [2] was “highest migration of GZMB^+ CTL; also recorded: increases CXCR4 expression and responsiveness to CXCL12”.
